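Where inhibition never reached the appropriate level, the endpoint shown equals the highest concentration tested. Otherwise, values were interpolated linearly from a five-concentration, 48-hour dose response in 96-well plates. The concentration for 50% growth inhibition is given as GI50. Definition used: TGI = concentration required for complete inhibition of growth.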

Test systems include A549 NSCLC; HCC-2998 colon; HT29 colon; K-562 leukemia; M14 melanoma; OVCAR-3 ovarian; OVCAR-5 ovarian; SNB-75 CNS; TK-10 renal; NCI-H226 lung.
Holding throughout (assay): inhibition of tumour cell growth, NCI panel, 48 h

For `CCCC(=O)Nc1cc2c3c(c1)CCCN3CCC2`, the TGI in the assay on A549 NSCLC, with HCC-2998 colon, in the assay with HT29 colon, in the assay with K-562 leukemia, with M14 melanoma and in the assay with OVCAR-3 ovarian was > 10 µM in each case. Also, the TGI in the assay on OVCAR-5 ovarian, with SNB-75 CNS and in the assay on TK-10 renal was > 10 µM throughout.

As to `Cc1[nH]c2ccccc2c1C(=O)/C=C/c1ccccc1O`, the TGI in the assay on A549 NSCLC, with HCC-2998 colon, in the assay on HT29 colon, in the assay on K-562 leukemia, in the assay on M14 melanoma and in the assay with OVCAR-3 ovarian was > 100 µM throughout. In addition, the TGI in the assay on OVCAR-5 ovarian, in the assay on SNB-75 CNS and with TK-10 renal was > 100 µM each time.

As for `Cc1cc(Cl)ccc1NC(=O)C(=O)Cc1nc2ccccc2o1`, the TGI in the assay with A549 NSCLC, in the assay with HCC-2998 colon, with HT29 colon, with K-562 leukemia, in the assay with M14 melanoma and in the assay with OVCAR-3 ovarian was > 100 µM each time. Moreover, the TGI in the assay with OVCAR-5 ovarian, in the assay with SNB-75 CNS and in the assay with TK-10 renal was > 100 µM each time.

Regarding `CC12CP(=O)(c3ccccc3)CC1C2(Cl)Cl` (stereo unspecified), the TGI with A549 NSCLC, in the assay with HCC-2998 colon, with HT29 colon, with K-562 leukemia, with M14 melanoma and in the assay on OVCAR-3 ovarian was > 100 µM in each case. Also, the TGI in the assay with SNB-75 CNS and with TK-10 renal was > 100 µM throughout.

`CC(=O)Oc1c2c(c(O)c3ccccc13)C(n1cnc3c(ncn3C3OC(CO)C4OC(C)(C)OC43)c1=N)CCC2` (stereo unspecified): the TGI in the assay with A549 NSCLC worked out at 35.4 µM; in the assay on HCC-2998 colon, 28.4 µM; with HT29 colon, 29.2 µM; in the assay on K-562 leukemia, 30 µM; in the assay on NCI-H226 lung, 52.8 µM; in the assay with OVCAR-3 ovarian it was 27.8 µM. Besides, the TGI was 35.9 µM with OVCAR-5 ovarian, 32.3 µM in the assay on SNB-75 CNS and 35.9 µM with TK-10 renal.

As to `CCC[CH2][Sn]([Cl])([CH2]CCC)[CH2]CCC`, the GI50 in the assay on A549 NSCLC is 0.132 µM; with HT29 colon it was 0.0396 µM; in the assay on K-562 leukemia, 0.0411 µM; in the assay with M14 melanoma, 0.162 µM; in the assay with OVCAR-3 ovarian, 0.142 µM; with OVCAR-5 ovarian it was 0.117 µM. In addition, the GI50 in the assay with SNB-75 CNS was 0.111 µM; in the assay with TK-10 renal it was 0.129 µM. Further, the TGI in the assay with A549 NSCLC amounted to 0.32 µM; in the assay with HT29 colon, 0.143 µM; in the assay on K-562 leukemia, 0.204 µM; in the assay on M14 melanoma it was 0.308 µM; in the assay on OVCAR-3 ovarian it was 0.312 µM; in the assay with OVCAR-5 ovarian, 0.248 µM. The TGI in the assay on SNB-75 CNS came out at 0.354 µM; in the assay with TK-10 renal it was 0.261 µM.

Consider `O=C1/C(=C/c2cccc(Cl)c2Cl)N=C(c2ccccc2)N1C1CC1`, for which the GI50 was 19.7 µM in the assay with A549 NSCLC; 18.2 µM in the assay on HT29 colon; 13.5 µM in the assay on K-562 leukemia; 9.54 µM in the assay on NCI-H226 lung; 22.1 µM in the assay on OVCAR-3 ovarian; 10.4 µM in the assay with OVCAR-5 ovarian. The GI50 in the assay with SNB-75 CNS was 6.06 µM; in the assay on TK-10 renal it was 10.7 µM. Also, the TGI in the assay with A549 NSCLC was > 50 µM; in the assay on HT29 colon it was > 50 µM; with K-562 leukemia, > 50 µM; in the assay with NCI-H226 lung it was 23.2 µM; with OVCAR-3 ovarian, > 50 µM; with OVCAR-5 ovarian, 21.1 µM. For the same molecule, the TGI is 15.9 µM with SNB-75 CNS and 27.7 µM with TK-10 renal.

Consider `COc1cc2c3c(n(C)c(=O)c2cc1OC)-c1cc2c(cc1/C3=C\CN)OCO2`, for which the GI50 in the assay on A549 NSCLC is 0.273 µM; in the assay with HCC-2998 colon, 0.0628 µM; in the assay on HT29 colon it was 0.192 µM; in the assay with K-562 leukemia, 0.106 µM; with NCI-H226 lung, 0.515 µM; with OVCAR-3 ovarian, 1.58 µM. Also, the figures for the GI50 with OVCAR-5 ovarian, with SNB-75 CNS and in the assay on TK-10 renal were 2.16 µM, 0.154 µM and 4.04 µM, respectively. For the same molecule, the TGI is 2.81 µM with A549 NSCLC; 0.589 µM in the assay with HCC-2998 colon; 24.8 µM in the assay on HT29 colon; 15.2 µM with NCI-H226 lung; 14.8 µM with OVCAR-3 ovarian; > 35.7 µM in the assay on OVCAR-5 ovarian. Moreover, the TGI in the assay with SNB-75 CNS came out at 59.7 µM; in the assay on TK-10 renal it was 32.8 µM.

As for `Cc1ccc(/C=C/C(=O)c2sc(-c3nc(C)c(C(=O)/C=C/c4ccc(C)cc4)s3)nc2C)cc1`, the TGI in the assay on A549 NSCLC, with HCC-2998 colon, in the assay with HT29 colon, with K-562 leukemia, in the assay with NCI-H226 lung and with OVCAR-3 ovarian was > 100 µM throughout. For the same molecule, the TGI with OVCAR-5 ovarian, in the assay on SNB-75 CNS and with TK-10 renal was > 100 µM in each case.

Take `NC(=O)C12CC3CC(CC(F)(C3)C1)C2`: the TGI in the assay on A549 NSCLC, in the assay on HCC-2998 colon, in the assay on HT29 colon, in the assay with K-562 leukemia, with M14 melanoma and with OVCAR-3 ovarian was > 100 µM in each case. Moreover, the TGI in the assay with OVCAR-5 ovarian, with SNB-75 CNS and in the assay with TK-10 renal was > 100 µM each time.

Source of the values: PubChem BioAssay (NCI).
